According to patent US8168860B2, “Compositions and methods for the modification of physiological responses in plants” (Rohm and Haas Company, priority 2007, dated 2012):
Several values for one entry are separate records, joined by “and”; a condition that tells them apart may be missing. Equal values may be shown once.

Assays:
Type in all cases: in vivo
[1] = system: tomato seedlings (WT, p1002 and p1003 lines); assay: Tomato seedling growth in the dark on 20 μM ACC with or without inducer; conditions: for Hypocotyls (mm) / Root (mm): 20 μM inducer, 20 μM ACC, 14 day old seedlings, dark
Procedure: Seed from three homozygous independent p1002 and p1003 lines were germinated in the dark on 0.5× MS medium+1% sucrose containing 20 μM ACC, the precursor to ethylene. Germination on ACC inhibits tomato seedling growth. Seed from the same lines also was germinated in the presence of 20 μM ACC plus 20 μM inducer.

[2] = system: transformed tobacco plants; assay: Triple response assay, shoot length of transformed tobacco shoots in dark with ethylene; conditions: for Shoot Length Avg (cm) / Shoot Length (cm): induced, 10 μM inducer, ethylene about 10 ppm, 18 days; for Shoot Length (cm): single shoots
Procedure: A triple response assay as described in Guzman and Ecker 1990 The Plant Cell, 2:513-523, modified as provided herein, was conducted to determine the effect of the modulation of ethylene sensitivity in the transformed tobacco plants of Example 2. From each transformed plant designated 185-1, 184-3, 185-8, 185-11, 187-7, 187-13, 187-17 and 187-21, two leaves from each plant were cut into small pieces. These pieces were plated onto MSS plates containing […] kanamycin, with or without 10 μM inducer, i.e., 3,5 Dimethyl-benzoic acid N-(1-ethyl-2,2-dimethyl-propyl)-N′-(3S-hydroxymethyl-5-methyl-2,3-dihydro-benzo[1,4]dioxine-6-carbonyl)hydrazide. MSS plates without antibiotic or inducer were used as controls.
These plated plant tissues were grown at 25° C. with light in growth chambers to induce shoots. Shoots were transferred into fresh plates for about two weeks for continued growth at 25° C. Each callus was then transferred to new culture dishes with or without inducer. Each callus with shoots starting to initiate was split into several plates with approximately equal amounts of callus per plate.
The plates were then separated into groups for the following treatment protocols which lasted for 18 days
Shoot length was measured, and the relative assessment of the efficacy of the transgenic plants prepared according to the Examples based on raw data for shoot length is reported in Table I for conditions (a) through (d) above. Typically, wild-type shoots exposed to ethylene in the dark display stunted growth. Ethylene insensitive plants under these conditions should show elongated growth. […] Shoots grown in the light produced uninterpretable data.

[3] = system: Wild-type, ein2-5 and p1002 Arabidopsis transformant seedlings; assay: Triple response assay, Arabidopsis seedlings, root and hypocotyl growth with ethylene; conditions: for Roots (mm) Avg / Hypocotyls (mm) Avg: 11 days
Procedure: (§1) A triple response assay (Guzman and Ecker, 1990 cited above, modified as described below) was used to determine the modulation of ethylene sensitivity in the transformed Arabidopsis plants of Example 4. Arabidopsis seed was surface-sterilized and imbibed in 20 μM inducer in the dark for 4 days at 4° C. The seed was plated on 0.5× MS with 1% sucrose and 20 μM inducer and for mutant receptors treated with 10 ppm ethylene or 1 ppm ethylene for wild-type receptors and grown in the dark for 4-8 days at 21° C. The response to ethylene was scored on the last day.
Wild-type, ein2-5 (an ethylene insensitive mutant control), and p1002 Arabidopsis transformant seedlings were assayed for ethylene insensitivity using the triple response assay (Guzman and Ecker, 1990, cited above, with the following modifications) in which seeds were germinated on 0.5× MS media for 11 days in the dark in the presence of 10 ppm ethylene. Root and hypocotyl growth is inhibited by ethylene in ethylene sensitive but not in ethylene insensitive seedlings.

[4] = system: tomato seedlings (WT, p1002-18, p1003-16); assay: Tomato seedling growth on 20 μM ACC and various levels of inducer; conditions: 20 μM ACC; for Hypocotyl (mm) / Root (mm): 10 day old seedlings
Procedure: Homozygous tomato seeds from one p1002 containing and one p1003 containing line were germinated on medium containing 20 μM ACC and various levels of inducer (i.e., 0.5-20 μM).

[5] = system: transformed tomato plants; assay: Triple response assay, transformed tomato plants with ethylene; conditions: transgenic tomato with etr1-1 cassettes, 20 μM inducer, dark, 4-8 days
Procedure: as §1, with “1990,” for “1990”, “tomato plants. Tomato” for “Arabidopsis plants of Example 4. Arabidopsis”

[6] = tomato line p1002-4 (first line so labelled, r8)
[7] = tomato line p1002-4 (second line so labelled, r13)
[8] = Arabidopsis, presence of inducer, 10 ppm ethylene
[9] = Ein2-5 seedlings, 20 μM inducer, 10 ppm ethylene, dark
[10] = WT seedlings, 20 μM inducer, 10 ppm ethylene, dark
[11] = p1002-1-4 seedlings, 20 μM inducer, 10 ppm ethylene, dark
[12] = p1002-3-4 seedlings, 20 μM inducer, 10 ppm ethylene, dark
[13] = p1002-11-3 seedlings, 20 μM inducer, 10 ppm ethylene, dark
[14] = p1002-23-2 seedlings, 20 μM inducer, 10 ppm ethylene, dark
[15] = p1002-24-4 seedlings, 20 μM inducer, 10 ppm ethylene, dark
[16] = p1002-18 tomato, Inducer 0.5 μM
[17] = p1002-18 tomato, Inducer 2.5 μM
[18] = p1003-16 tomato, Inducer 0.5 μM
[19] = p1003-16 tomato, Inducer 2.5 μM

Structure (SMILES): CCC(N(NC(=O)c1ccc2c(c1C)O[C@@H](CO)CO2)C(=O)c1cc(C)cc(C)c1)C(C)(C)C (stereo partly drawn) [inducer, 3,5 Dimethyl-benzoic acid N-(1-ethyl-2,2-dimethyl-propyl)-N′-(3S-hydroxymethyl-5-methyl-2,3-dihydro-benzo[1,4]dioxine-6-carbonyl)hydrazide]
- Hypocotyls (mm) ([1]; WT tomato): 11.2 ± 3.18 mm
- Root (mm) ([1]; WT tomato): 11.2 ± 3.18 mm
- Hypocotyls (mm) [1, 6]: 32.7 ± 16.8 mm
- Root (mm) [1, 6]: 42.2 ± 16.3 mm
- Hypocotyls (mm) [1, 7]: 33.9 ± 6.02 mm
- Root (mm) [1, 7]: 29.8 ± 21.4 mm
- Hypocotyls (mm) ([1]; tomato line p1002-7): 36.2 ± 8.42 mm
- Root (mm) ([1]; tomato line p1002-7): 44.5 ± 7.71 mm
- Hypocotyls (mm) ([1]; tomato line p1002-9): 29.9 ± 7.85 mm
- Root (mm) ([1]; tomato line p1002-9): 35.0 ± 16.0 mm
- Hypocotyls (mm) ([1]; tomato line p1002-16): 39.6 ± 9.62 mm
- Root (mm) ([1]; tomato line p1002-16): 19.5 ± 16.3 mm
- Hypocotyls (mm) ([1]; tomato line p1002-18): 35.4 ± 8.82 mm
- Root (mm) ([1]; tomato line p1002-18): 35.4 ± 8.82 mm
- ethylene insensitivity (elongated hypocotyls with no apical hook) ([1]; tomato p1002 and p1003 lines, growth on ACC in the presence of inducer): resulted in a state of ethylene insensitivity
- Shoot Length Avg (cm) ([2]; tobacco plant 185-1 (VGE)): 2.8 cm
- Shoot Length Avg (cm) ([2]; tobacco plant 185-8 (VGE)): 4.6 cm
- Shoot Length (cm) ([2]; tobacco plant 185-8 (VGE)): 5.5 cm and 5.0 cm and 4.0 cm and 4.4 cm and 4.3 cm
- Shoot Length Avg (cm) ([2]; tobacco plant 185-11 (VGE)): 4.0 cm
- Shoot Length (cm) ([2]; tobacco plant 185-11 (VGE)): 4.0 cm and 4.5 cm and 3.0 cm
- Shoot Length Avg (cm) ([2]; tobacco plant 187-7 (GVE)): 3.0 cm
- Shoot Length (cm) ([2]; tobacco plant 187-7 (GVE)): 3.0 cm
- Shoot Length Avg (cm) ([2]; tobacco plant 187-13 (GVE)): 3.9 cm
- Shoot Length (cm) ([2]; tobacco plant 187-13 (GVE)): 4.0 cm and 3.5 cm and 5.0 cm and 3.0 cm
- Shoot Length Avg (cm) ([2]; tobacco plant 187-17 (GVE)): 4.3 cm
- Shoot Length (cm) ([2]; tobacco plant 187-17 (GVE)): 5.6 cm and 3.5 cm
- Shoot Length Avg (cm) ([2]; tobacco plant 187-21 (GVE)): 3.4 cm
- Shoot Length (cm) ([2]; tobacco plant 187-21 (GVE)): 4.0 cm and 3.5 cm and 3.0 cm and 2.5 cm
- ethylene insensitivity, based on increased shoot length compared to non-induced transgenic plants ([2]; transgenic tobacco with etr1-1 cassettes, presence of inducer, ethylene): demonstrated ethylene insensitivity
- root length of most p1002 transformants versus wild-type or ein2 mutant seedlings ([3]; Arabidopsis, inducer in the presence of silver, 10 ppm ethylene): not significantly longer
- effect on hypocotyls of p1002 transformants [3, 8]: No effect was observed
- root length of p1002 transformants relative to wild-type seedlings [3, 8]: significantly longer
- Roots (mm) Avg ([3]; Ein2-5 seedlings, 20 μM inducer + 5 μM AgNO3, 10 ppm ethylene, dark): 12.4 mm
- Hypocotyls (mm) Avg [3, 9]: ~30 mm
- Roots (mm) Avg [3, 9]: 19.9 mm
- Roots (mm) Avg ([3]; WT seedlings, 20 μM inducer + 5 μM AgNO3, 10 ppm ethylene, dark): 13.9 mm
- Hypocotyls (mm) Avg [3, 10]: 12 mm
- Roots (mm) Avg [3, 10]: 3.92 mm
- Roots (mm) Avg ([3]; p1002-1-4 seedlings, 20 μM inducer + 5 μM AgNO3, 10 ppm ethylene, dark): 11.8 mm
- Hypocotyls (mm) Avg [3, 11]: 12.3 mm
- Roots (mm) Avg [3, 11]: 5.8 mm
- Roots (mm) Avg ([3]; p1002-3-4 seedlings, 20 μM inducer + 5 μM AgNO3, 10 ppm ethylene, dark): 17.4 mm
- Hypocotyls (mm) Avg [3, 12]: 12.7 mm
- Roots (mm) Avg [3, 12]: 6.7 mm
- Roots (mm) Avg ([3]; p1002-11-3 seedlings, 20 μM inducer + 5 μM AgNO3, 10 ppm ethylene, dark): 11.7 mm
- Hypocotyls (mm) Avg [3, 13]: 12.1 mm
- Roots (mm) Avg [3, 13]: 5.6 mm
- Roots (mm) Avg ([3]; p1002-23-2 seedlings, 20 μM inducer + 5 μM AgNO3, 10 ppm ethylene, dark): 10.5 mm
- Hypocotyls (mm) Avg [3, 14]: 12.1 mm
- Roots (mm) Avg [3, 14]: 6.04 mm
- Roots (mm) Avg ([3]; p1002-24-4 seedlings, 20 μM inducer + 5 μM AgNO3, 10 ppm ethylene, dark): 13.1 mm
- Hypocotyls (mm) Avg [3, 15]: 12.2 mm
- Roots (mm) Avg [3, 15]: 4.96 mm
- ethylene insensitivity, based on increased shoot length and/or altered root growth compared to non-induced transgenic plants ([3]; transgenic Arabidopsis with etr1-1 cassettes, 20 μM inducer, ethylene, dark, 4-8 days): demonstrated ethylene insensitivity
- Hypocotyl (mm) ([4]; WT tomato, Inducer 20 μM): 6.24 ± 2.75 mm
- Root (mm) ([4]; WT tomato, Inducer 20 μM): 9.06 ± 14.8 mm
- Hypocotyl (mm) [4, 16]: 8.40 ± 6.29 mm
- Root (mm) [4, 16]: 12.0 ± 13.3 mm
- Hypocotyl (mm) ([4]; p1002-18 tomato, Inducer 1 μM): 11.1 ± 7.41 mm
- Root (mm) ([4]; p1002-18 tomato, Inducer 1 μM): 16.5 ± 16.6 mm
- Hypocotyl (mm) [4, 17]: 13.5 ± 8.97 mm
- Root (mm) [4, 17]: 16.0 ± 16.6 mm
- Hypocotyl (mm) ([4]; p1002-18 tomato, Inducer 5 μM): 14.5 ± 7.75 mm
- Root (mm) ([4]; p1002-18 tomato, Inducer 5 μM): 15.2 ± 8.39 mm
- Hypocotyl (mm) ([4]; p1002-18 tomato, Inducer 10 μM): 19.8 ± 10.8 mm
- Root (mm) ([4]; p1002-18 tomato, Inducer 10 μM): 22.7 ± 13.5 mm
- Hypocotyl (mm) ([4]; p1002-18 tomato, Inducer 20 μM): 26.3 ± 11.9 mm
- Root (mm) ([4]; p1002-18 tomato, Inducer 20 μM): 33.3 ± 12.8 mm
- Hypocotyl (mm) [4, 18]: 17.0 ± 6.46 mm
- Root (mm) [4, 18]: 14.4 ± 15.3 mm
- Hypocotyl (mm) ([4]; p1003-16 tomato, Inducer 1 μM): 20.9 ± 10.7 mm
- Root (mm) ([4]; p1003-16 tomato, Inducer 1 μM): 10.3 ± 12.7 mm
- Hypocotyl (mm) [4, 19]: 20.1 ± 8.77 mm
- Root (mm) [4, 19]: 9.19 ± 8.98 mm
- Hypocotyl (mm) ([4]; p1003-16 tomato, Inducer 5 μM): 23.6 ± 11.4 mm
- Root (mm) ([4]; p1003-16 tomato, Inducer 5 μM): 20.2 ± 14.9 mm
- Hypocotyl (mm) ([4]; p1003-16 tomato, Inducer 10 μM): 25.9 ± 8.77 mm
- Root (mm) ([4]; p1003-16 tomato, Inducer 10 μM): 29.1 ± 12.4 mm
- Hypocotyl (mm) ([4]; p1003-16 tomato, Inducer 20 μM): 27.5 ± 9.10 mm
- Root (mm) ([4]; p1003-16 tomato, Inducer 20 μM): 25.6 ± 11.4 mm
- relation of inducer concentration to level of ethylene insensitivity ([4]; tomato p1002 and p1003 line, inducer 0.5-20 μM): directly related to the level of ethylene insensitivity
- ethylene insensitivity, based on increased shoot length and/or altered root growth compared to non-induced transgenic plants [5]: demonstrated ethylene insensitivity
